In a compilation of properties of binary mixtures (doi:10.1016/j.molliq.2022.119221):

Assay: xn = mol fraction of the nth substance listed
Conditions: 100 kPa

OCCO + CCCC[n+]1ccn(C)c1.O=S(=O)([N-]S(=O)(=O)C(F)(F)F)C(F)(F)F
viscosity [mPa·s]
Conditions	293.15 K	298.15 K	303.15 K	308.15 K	313.15 K	318.15 K	323.15 K	328.15 K	333.15 K	338.15 K
x2 = 0.1	30.7	24.6	19.2	15.2	12.5	10.4	8.87	7.66	6.65	5.82
x2 = 0.2002	–	–	21.5	17.6	14.8	12.5	10.7	9.27	–	7.1
x2 = 0.2997	37.9	29.2	22.8	–	–	–	–	9.9	8.68	7.64
x2 = 0.4015	–	31.4	24.5	19.7	16.5	14.1	12.1	–	9.16	8.01
x2 = 0.4993	42	32.5	25.1	20.4	17.2	14.7	12.6	10.9	9.57	8.48
x2 = 0.6007	43	33.3	26.2	21.7	17.8	15	13	–	9.8	8.61
x2 = 0.7003	42	33.7	26.3	–	18.4	–	13.4	11.6	10.1	8.93
x2 = 0.7993	42.4	34.6	28.2	23.8	20.2	17.2	–	12.9	–	–
x2 = 0.9	48.7	39.8	32.8	27.3	23.1	19.7	–	–	12.9	11.4
